Data published in publication PMC10215352 (Biology, 2023).
Peptide text beside a SMILES is read from it.

How the values were obtained:
Assay type in all cases: cell-based
YdgR [1] = target: T1, YdgR (Escherichia coli, UniProt P77304); experiment: inhibition of β-Ala-Lys-AMCA uptake in E. coli; conditions: 10 mM peptide, 0.5 mM labelled substrate β-Ala-Lys-AMCA, pH 6.5, 37 °C; competing substrate
T1 construct: gene dtpA; full-length, C-terminal His6 tag, expressed in E. coli BL21(DE3) pLysS, whole-cell uptake
T1 sequence (P77304 1-500): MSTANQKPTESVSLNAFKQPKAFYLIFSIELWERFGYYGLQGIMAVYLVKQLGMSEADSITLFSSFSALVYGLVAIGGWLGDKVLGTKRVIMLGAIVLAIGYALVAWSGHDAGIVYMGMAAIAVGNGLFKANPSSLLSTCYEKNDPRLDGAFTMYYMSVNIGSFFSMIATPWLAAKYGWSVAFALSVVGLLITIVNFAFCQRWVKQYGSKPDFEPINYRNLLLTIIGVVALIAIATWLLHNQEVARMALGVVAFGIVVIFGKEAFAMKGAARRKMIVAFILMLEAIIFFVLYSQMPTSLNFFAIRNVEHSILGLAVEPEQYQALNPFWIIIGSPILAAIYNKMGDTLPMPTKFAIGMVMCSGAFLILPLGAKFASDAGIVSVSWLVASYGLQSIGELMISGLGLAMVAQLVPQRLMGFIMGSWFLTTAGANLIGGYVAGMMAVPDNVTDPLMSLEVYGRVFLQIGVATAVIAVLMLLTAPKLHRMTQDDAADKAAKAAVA

YjdL = target: T2, YjdL (Escherichia coli, UniProt P39276); experiment: fluorescent uptake in E. coli; conditions: 0.5 mM, labelled compound, cells preloaded with AA, with and without CCCP, 37 °C
T2 construct: gene dtpC; full-length, C-terminal His6 tag, expressed in E. coli BL21(DE3) pLysS, whole-cell uptake
T2 sequence (P39276 1-485): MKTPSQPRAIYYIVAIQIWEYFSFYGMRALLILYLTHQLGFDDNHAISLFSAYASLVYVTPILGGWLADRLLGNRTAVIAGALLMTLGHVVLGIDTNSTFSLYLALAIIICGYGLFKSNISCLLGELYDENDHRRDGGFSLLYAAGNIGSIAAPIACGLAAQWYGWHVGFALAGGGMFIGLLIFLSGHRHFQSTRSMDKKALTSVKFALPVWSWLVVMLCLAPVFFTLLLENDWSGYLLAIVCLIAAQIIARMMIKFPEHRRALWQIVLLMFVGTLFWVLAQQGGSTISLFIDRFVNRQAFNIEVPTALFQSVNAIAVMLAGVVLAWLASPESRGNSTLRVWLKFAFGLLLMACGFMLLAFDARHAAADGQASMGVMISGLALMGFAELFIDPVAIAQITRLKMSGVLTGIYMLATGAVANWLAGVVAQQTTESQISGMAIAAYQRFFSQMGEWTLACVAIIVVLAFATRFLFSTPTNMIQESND

YdgR [2] = target: T1, YdgR; experiment: fluorescent uptake in E. coli; conditions: 0.5 mM, labelled compound, pH 6.5, 37 °C

| Structure (SMILES) | uptake inhibition (YdgR [1]) | fluorescent uptake in E. coli (YjdL) | fluorescent uptake in E. coli (YdgR [2]) |
| --- | --- | --- | --- |
| C[C@H](N)C(=O)N[C@@H](C)C(=O)O [AA] (H-Ala-Ala-OH) | its uptake was significantly decreased in the presence of AA and AAA |  |  |
| Cc1c(CC(=O)NCCCC[C@H](NC(=O)CCN)C(=O)O)c(=O)oc2cc(N)ccc12 [β-Ala-Lys-AMCA] |  | YjdL and YdgR exhibited a significant decline in uptake activity in the presence of CCCP | Overall β-Ala-Lys-AMCA uptake by CPEPOT was significantly lower than YdgR |
